From US12486274B2, “Substituted pyrazolo-pyrimidines and uses thereof” (Verge Analytics, Inc., priority 2020, dated 2025)

Molecular target: Full length human recombinant PIKFYVE (Homo sapiens (Human), UniProt Q9Y2I7)
Assay: Inhibition of PIKfyve (microfluidic electrophoresis kinase assay)
Format: biochemical
Details: 2 nM enzyme, PI3P/PS substrate, 3 h at room temperature, 12 concentrations
Method: Full length human recombinant PIKFYVE expressed in baculovirus expression system as N-terminal GST-fusion protein (265 kDa) was obtained from Carna Biosciences (Kobe, Japan). The kinase substrate was prepared by mixing and sonicating fluorescently-labeled phosphatidylinositol 3-phosphate (PI3P) with phospho-L-serine (PS) at a 1:10 ratio in 50 mM HEPES buffer pH7.5.
The kinase reactions were assembled in 384-well plates (Greiner) in a total volume of […] as follows. Kinase protein was pre-diluted in an assay buffer comprising 25 mM HEPES, pH 7.5, 1 mM DTT, 2.5 mM MgCl2, and 2.5 mM MnCl2, and 0.005% Triton X-100, and dispensed into a 384-well plate (10 μL per well). Test compounds were serially pre-diluted in DMSO and added to the protein samples by acoustic dispensing (Labcyte Echo). The concentration of DMSO was equalized to 1% in all samples. All test compounds were tested at 12 concentrations. Apilimod was used as a reference compound and was tested in identical manner in each assay plate. Control samples (0%-inhibition, in the absence of inhibitor, DMSO only) and 100%-inhibition (in the absence of enzyme) were assembled in replicates of four and were used to calculate %-inhibition in the presence of compounds. The reactions were initiated by addition of 10 μL of 2× PI3P/PS substrate supplemented with ATP. The final concentration of enzyme was 2 nM, the final concentration of ATP was 10 mM, and the final concentration of PI3P/PS substrate was 1 μM (PI3P). The kinase reactions were allowed to proceed for 3 h at room temperature. Following incubation, the reactions were quenched by addition of […] of termination buffer (100 mM HEPES, pH 7.5, 0.01% Triton X-100, 20 mM EDTA). Terminated plates were analyzed on a microfluidic electrophoresis instrument (Caliper LabChip® 3000, Caliper Life Sciences/Perkin Elmer). The change in the relative fluorescence intensity of the PI (3) P substrate and PI (3,5) P product peaks was measured. The activity in each test sample was determined as the product to sum ratio (PSR): P/(S+P), where P is the peak height of the product, and S is the peak height of the substrate. Percent inhibition (Pinh) was determined using the following equation: Pinh=(PSR0% inh−PSRcompound)/(PSR0% inh−PSR100% inh)*100 in which PSRcompound is the product/sum ratio in the presence of compound, PSR0% inh is the product/sum ratio in the absence of compound, and the PSR100% inh is the product/sum ratio in the absence of the enzyme.

Chain of Full length human recombinant PIKFYVE (Q9Y2I7 whole entry): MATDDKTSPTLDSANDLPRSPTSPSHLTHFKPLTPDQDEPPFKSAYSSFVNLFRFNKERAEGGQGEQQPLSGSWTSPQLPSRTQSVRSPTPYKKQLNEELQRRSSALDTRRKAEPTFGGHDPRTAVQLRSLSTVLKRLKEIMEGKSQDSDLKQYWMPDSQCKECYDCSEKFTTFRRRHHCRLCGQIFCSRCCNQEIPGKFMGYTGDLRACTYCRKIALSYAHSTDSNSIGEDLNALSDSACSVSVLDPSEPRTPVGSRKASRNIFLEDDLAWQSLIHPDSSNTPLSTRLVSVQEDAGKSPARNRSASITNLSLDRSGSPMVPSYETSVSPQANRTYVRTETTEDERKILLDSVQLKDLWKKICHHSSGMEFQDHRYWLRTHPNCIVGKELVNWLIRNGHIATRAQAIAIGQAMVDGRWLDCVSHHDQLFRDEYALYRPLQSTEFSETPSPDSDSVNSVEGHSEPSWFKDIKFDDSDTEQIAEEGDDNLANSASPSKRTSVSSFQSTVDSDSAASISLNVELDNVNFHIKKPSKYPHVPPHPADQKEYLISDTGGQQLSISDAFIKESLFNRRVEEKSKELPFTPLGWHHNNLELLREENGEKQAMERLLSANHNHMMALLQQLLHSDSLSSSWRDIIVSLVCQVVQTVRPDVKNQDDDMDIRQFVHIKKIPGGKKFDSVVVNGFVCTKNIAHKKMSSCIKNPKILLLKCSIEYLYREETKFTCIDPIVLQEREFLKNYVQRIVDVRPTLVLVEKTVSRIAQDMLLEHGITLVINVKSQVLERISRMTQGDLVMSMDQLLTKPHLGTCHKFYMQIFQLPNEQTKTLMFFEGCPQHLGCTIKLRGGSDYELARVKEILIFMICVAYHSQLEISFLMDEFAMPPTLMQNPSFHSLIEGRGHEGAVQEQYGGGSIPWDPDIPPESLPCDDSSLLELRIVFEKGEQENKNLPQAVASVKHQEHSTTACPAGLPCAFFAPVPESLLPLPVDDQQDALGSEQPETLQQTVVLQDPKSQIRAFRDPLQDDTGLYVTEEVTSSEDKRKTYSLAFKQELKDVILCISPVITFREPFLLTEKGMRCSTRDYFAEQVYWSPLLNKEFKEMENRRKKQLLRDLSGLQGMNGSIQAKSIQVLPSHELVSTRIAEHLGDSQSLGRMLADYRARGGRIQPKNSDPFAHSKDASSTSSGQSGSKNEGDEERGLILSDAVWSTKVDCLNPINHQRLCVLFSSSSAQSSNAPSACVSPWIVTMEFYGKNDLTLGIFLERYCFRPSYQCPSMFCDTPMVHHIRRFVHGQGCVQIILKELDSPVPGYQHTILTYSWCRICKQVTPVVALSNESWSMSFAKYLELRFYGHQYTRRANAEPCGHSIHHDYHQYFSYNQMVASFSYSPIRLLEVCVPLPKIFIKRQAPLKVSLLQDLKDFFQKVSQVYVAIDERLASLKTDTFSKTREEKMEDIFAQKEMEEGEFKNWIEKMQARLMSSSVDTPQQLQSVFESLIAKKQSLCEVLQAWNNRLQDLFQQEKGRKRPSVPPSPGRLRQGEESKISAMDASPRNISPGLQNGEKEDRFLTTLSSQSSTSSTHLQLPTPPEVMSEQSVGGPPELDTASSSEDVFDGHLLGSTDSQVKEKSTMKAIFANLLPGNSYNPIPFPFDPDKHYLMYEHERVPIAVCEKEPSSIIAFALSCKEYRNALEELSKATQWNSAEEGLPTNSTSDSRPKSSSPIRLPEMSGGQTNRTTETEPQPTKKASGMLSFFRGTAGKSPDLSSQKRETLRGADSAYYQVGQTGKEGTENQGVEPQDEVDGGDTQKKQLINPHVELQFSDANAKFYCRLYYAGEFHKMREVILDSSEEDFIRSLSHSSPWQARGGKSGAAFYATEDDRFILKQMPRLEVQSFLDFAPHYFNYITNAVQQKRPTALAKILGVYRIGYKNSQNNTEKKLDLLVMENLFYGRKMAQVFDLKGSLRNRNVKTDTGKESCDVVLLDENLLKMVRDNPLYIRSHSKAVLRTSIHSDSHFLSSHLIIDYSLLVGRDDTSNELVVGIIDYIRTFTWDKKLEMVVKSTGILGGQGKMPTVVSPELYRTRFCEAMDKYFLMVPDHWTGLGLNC

SMILES | IC50 [nM]
Cc1cccc(-c2cnn(-c3cc(N4CCOCC4)n4nc(-c5cccnc5N)cc4n3)c2)c1 [Compound 59, 3-[7-morpholino-5-[4-(m-tolyl)pyrazol-1-yl]pyrazolo[1,5-a]pyrimidin-2-yl]pyridin-2-amine] | > 20000
Cc1cncc(-c2ccn(-c3cc(N4CCOCC4)n4nc(-c5cccnc5)cc4n3)n2)c1 [Compound 102, 4-[5-[3-(5-methyl-3-pyridyl)pyrazol-1-yl]-2-(3-pyridyl)pyrazolo[1,5-a]pyrimidin-7-yl]morpholine] | > 10000
Cc1cccc(-c2cnn(-c3cc(N4CCOCC4)n4nc(-c5ccncn5)cc4n3)c2)c1 [Compound 57, 4-[5-[4-(m-tolyl)pyrazol-1-yl]-2-pyrimidin-4-yl-pyrazolo[1,5-a]pyrimidin-7-yl]morpholine] | 3750
c1ccc(-c2cnn(-c3cc(N4CCOCC4)n4nc(-c5ccncc5)cc4n3)c2)cc1 [Example 9, 4-[5-(4-phenylpyrazol-1-yl)-2-(4-pyridyl)pyrazolo[1,5-a]pyrimidin-7-yl]morpholine] | > 10000
Cc1cccc(-c2ccn(-c3cc(N4CCOCC4)n4nc(C(=O)NCC5(CO)COC5)cc4n3)n2)c1 [Example 44, N-((3-(hydroxymethyl)oxetan-3-yl)methyl)-7-morpholino-5-(3-(m-tolyl)-1H-pyrazol-1-yl)pyrazolo[1,5-a]pyrimidine-2-carboxamide] | 79
Cc1cccc(-c2ccn(-c3cc(N4CCOCC4)n4nc(-c5cc[nH]n5)cc4n3)n2)c1 [Compound 62, 4-[5-[3-(m-tolyl)pyrazol-1-yl]-2-(1H-pyrazol-3-yl)pyrazolo[1,5-a]pyrimidin-7-yl]morpholine] | 15.8
Cc1cccc(-c2ccn(-c3cc(N4CCOCC4)n4nc(C(=O)NCC5CC5)cc4n3)n2)c1 [Example 27, N-(cyclopropylmethyl)-7-morpholino-5-(3-(m-tolyl)-1H-pyrazol-1-yl)pyrazolo[1,5-a]pyrimidine-2-carboxamide] | 73.7
Cc1cc(-c2cc3nc(-n4ccc(-c5ccccc5)n4)cc(N4CCOCC4)n3n2)n(C)n1 [Compound 85, 4-[2-(2,5-dimethylpyrazol-3-yl)-5-(3-phenylpyrazol-1-yl)pyrazolo[1,5-a]pyrimidin-7-yl]morpholine] | 215
CCNC(=O)c1cc2nc(-n3ccc(-c4cccc(C)c4)n3)cc(N3CCOCC3)n2n1 [Example 19, N-ethyl-7-morpholino-5-(3-(m-tolyl)-1H-pyrazol-1-yl)pyrazolo[1,5-a]pyrimidine-2-carboxamide] | 76.2
CC(C)NC(=O)c1cc2nc(-n3ccc(-c4ccccc4)n3)cc(N3CCOCC3)n2n1 [Compound 73, N-isopropyl-7-morpholino-5-(3-phenylpyrazol-1-yl)pyrazolo[1,5-a]pyrimidine-2-carboxamide] | 335
Cc1cccc(-c2cnn(-c3cc(N4CCOCC4)n4nc(C(=O)NC5CCN(C)CC5)cc4n3)c2)c1 [Compound 55, N-(1-methyl-4-piperidyl)-7-morpholino-5-[4-(m-tolyl)pyrazol-1-yl]pyrazolo[1,5-a]pyrimidine-2-carboxamide] | 6420
Cc1cccc(-c2ccn(-c3cc(N4CCOCC4)n4nc(C(=O)NOC5COC5)cc4n3)n2)c1 [Example 47, 7-morpholino-N-(oxetan-3-yloxy)-5-(3-(m-tolyl)-1H-pyrazol-1-yl)pyrazolo[1,5-a]pyrimidine-2-carboxamide] | 122
c1ccc(-c2ccn(-c3cc(N4CCOCC4)n4nc(-c5nccs5)cc4n3)n2)cc1 [Compound 114, 4-[5-(3-phenylpyrazol-1-yl)-2-thiazol-2-yl-pyrazolo[1,5-a]pyrimidin-7-yl]morpholine] | 100
c1ccc(-c2ccn(-c3cc(N4CCOCC4)n4nc(-c5cc[nH]n5)cc4n3)n2)cc1 [Compound 67, 4-[5-(3-phenylpyrazol-1-yl)-2-(1H-pyrazol-3-yl)pyrazolo[1,5-a]pyrimidin-7-yl]morpholine] | 261
Cc1cccc(-c2cnn(-c3cc(N4CCOCC4)n4nc(-c5cncnc5)cc4n3)c2)c1 [Compound 58, 4-[5-[4-(m-tolyl)pyrazol-1-yl]-2-pyrimidin-5-yl-pyrazolo[1,5-a]pyrimidin-7-yl]morpholine] | > 20000
C[C@@H](NC(=O)c1cc2nc(-n3ccc(-c4ccccc4)n3)cc(N3CCOCC3)n2n1)C1CC1 [Compound 74, N-[(1R)-1-cyclopropylethyl]-7-morpholino-5-(3-phenylpyrazol-1-yl)pyrazolo[1,5-a]pyrimidine-2-carboxamide] | 353
Cc1ccccc1-c1cc(Nc2cc(N3CCOCC3)n3nc(-c4ccncc4)cc3n2)n[nH]1 [Example 3, 7-morpholino-N-[5-(o-tolyl)-1H-pyrazol-3-yl]-2-(4-pyridyl)pyrazolo[1,5-a]pyrimidin-5-amine] | 3150
O=C(NC1CCCC1)c1cc2nc(-n3ccc(-c4ccccc4)n3)cc(N3CCOCC3)n2n1 [Compound 77, N-cyclopentyl-7-morpholino-5-(3-phenylpyrazol-1-yl)pyrazolo[1,5-a]pyrimidine-2-carboxamide] | 184
Cc1cccc(-c2ccn(-c3cc(N4CCOCC4)n4nc(-c5ccn(C)n5)cc4n3)n2)c1 [Compound 61, 4-[2-(1-methylpyrazol-3-yl)-5-[3-(m-tolyl)pyrazol-1-yl]pyrazolo[1,5-a]pyrimidin-7-yl]morpholine] | 2.4
c1ccc(-c2ccn(-c3cc(N4CCOCC4)n4nc(-c5ccccn5)cc4n3)n2)cc1 [Compound 72, 4-[5-(3-phenylpyrazol-1-yl)-2-(2-pyridyl)pyrazolo[1,5-a]pyrimidin-7-yl]morpholine] | 281
Cc1cccc(-c2ccn(-c3cc(N4CCOCC4)n4nc(C(=O)N[C@@H]5CCCN(C)C5)cc4n3)n2)c1 [Compound 52, N-[(3R)-1-methyl-3-piperidyl]-7-morpholino-5-[3-(m-tolyl)pyrazol-1-yl]pyrazolo[1,5-a]pyrimidine-2-carboxamide] | 28.4
Cn1ccc(-c2cc3nc(-n4ccc(-c5cccc(Cl)c5)n4)cc(N4CCOCC4)n3n2)n1 [Compound 101, 4-[5-[3-(3-chlorophenyl)pyrazol-1-yl]-2-(1-methylpyrazol-3-yl)pyrazolo[1,5-a]pyrimidin-7-yl]morpholine] | 41
c1ccc(-c2cnn(-c3cc(N4CCOCC4)n4nc(-c5ccccn5)cc4n3)c2)cc1 [Compound 78, 4-[5-(4-phenylpyrazol-1-yl)-2-(2-pyridyl)pyrazolo[1,5-a]pyrimidin-7-yl]morpholine] | 441
COc1cccc(-c2ccn(-c3cc(N4CCOCC4)n4nc(-c5cc(C)n(CCN(C)C)n5)cc4n3)n2)c1 [Compound 100, 2-[3-[5-[3-(3-methoxyphenyl)pyrazol-1-yl]-7-morpholino-pyrazolo[1,5-a]pyrimidin-2-yl]-5-methyl-pyrazol-1-yl]-N,N-dimethyl-ethanamine] | 8.4
Cc1cccc(-c2ccn(-c3cc(N4CCOCC4)n4nc(C(=O)N[C@@H]5CCN(C)C5)cc4n3)n2)c1 [Compound 49, N-[(3R)-1-methylpyrrolidin-3-yl]-7-morpholino-5-[3-(m-tolyl)pyrazol-1-yl]pyrazolo[1,5-a]pyrimidine-2-carboxamide] | 112
Cc1cccc(-c2ccn(-c3cc(N4CCOCC4)n4nc(C(=O)NCCN(C)C)cc4n3)n2)c1 [Example 40, N-(2-(dimethylamino)ethyl)-7-morpholino-5-(3-(m-tolyl)-1H-pyrazol-1-yl)pyrazolo[1,5-a]pyrimidine-2-carboxamide] | 258
Cc1cccc(-c2ccn(-c3cc(N4CCOCC4)n4nc(C(=O)N5CCOCC5)cc4n3)n2)c1 [Example 31, morpholino (7-morpholino-5-(3-(m-tolyl)-1H-pyrazol-1-yl)pyrazolo[1,5-a]pyrimidin-2-yl)methanone] | 242
c1ccc(-c2ccn(-c3cc(N4CCOCC4)n4nc(-c5cccnn5)cc4n3)n2)cc1 [Compound 88, 4-[5-(3-phenylpyrazol-1-yl)-2-pyridazin-3-yl-pyrazolo[1,5-a]pyrimidin-7-yl]morpholine] | 208
Cc1cccc(-c2ccn(-c3cc(N4CCOCC4)n4nc(C(=O)N(C)C5CCCC5)cc4n3)n2)c1 [Example 37, N-cyclopentyl-N-methyl-7-morpholino-5-(3-(m-tolyl)-1H-pyrazol-1-yl)pyrazolo[1,5-a]pyrimidine-2-carboxamide] | 213
Cc1cc(-c2cc3nc(-n4ccc(-c5ccncc5)n4)cc(N4CCOCC4)n3n2)nn1CCN(C)C [Compound 93, N,N-dimethyl-2-[5-methyl-3-[7-morpholino-5-[3-(4-pyridyl)pyrazol-1-yl]pyrazolo[1,5-a]pyrimidin-2-yl]pyrazol-1-yl]ethanamine] | > 10000
